From patent US7763654B2, “Crystal polymorph of hydroxynorephedrin derivative hydrochloride” (Kissei Pharmaceutical Co., Ltd., priority 2005, dated 2010)

Assays:
[1] = Stability Test 2 (140° C.), heating, powder X-ray diffraction; type: physicochemical; conditions: after heating to 140° C.
Method: The powder X-ray diffraction data of each crystal polymorph were measured by X-ray diffractometer RINT 2100 ultima+manufactured by Rigaku Denki Corporation (measuring conditions; CuK α rays, 40 kV in X-ray tube voltage, 40 mA in X-ray tube current). The 2θ value of diffraction pattern by the powder X-ray diffractometry may deviate in some cases by a factor of about 0.5° depending on the sample conditions and measuring conditions. In addition, due to the properties of data, a total diffraction pattern of the powder X-ray diffractometry is important for the identification of crystals. The TG/DTA measurements of each crystal polymorph were conducted by thermogravimetry analyzer (TG/DTA) ThermoPlus 2 series TG8120 manufactured by Rigaku Denki Corporation (measuring conditions; temperature rising rate 10° C./minutes, samplepan (Al), reference (Al2O3), under a nitrogen atmosphere). Melting points of each crystal were searched from differential thermal analysis (DTA) endothermic peak (extrapolation). The solid state C^13-NMR spectrums of each crystal polymorph were measured by AVANCE/DRX500 manufactured by Bruker (measuring conditions; accumulated counts 512 times, contact time 3 msec, repeated time 5 sec, probe 4 mm MAS, observed frequency 125.77 Mhz, spinning rate 10000 Hz). […]

[2] = Stability Test 1 (60° C.), storage for a week; HPLC, powder X-ray diffraction, appearance; type: physicochemical; conditions: for residual percentage (chemical purity %): HPLC; for crystal form: powder X-ray diffraction
Method: The powder X-ray diffraction data of each crystal polymorph were measured by X-ray diffractometer RINT 2100 ultima+manufactured by Rigaku Denki Corporation (measuring conditions; CuK α rays, 40 kV in X-ray tube voltage, 40 mA in X-ray tube current). The 2θ value of diffraction pattern by the powder X-ray diffractometry may deviate in some cases by a factor of about 0.5° depending on the sample conditions and measuring conditions. In addition, due to the properties of data, a total diffraction pattern of the powder X-ray diffractometry is important for the identification of crystals. The TG/DTA measurements of each crystal polymorph were conducted by thermogravimetry analyzer (TG/DTA) ThermoPlus 2 series TG8120 manufactured by Rigaku Denki Corporation (measuring conditions; temperature rising rate 10° C./minutes, samplepan (Al), reference (Al2O3), under a nitrogen atmosphere). Melting points of each crystal were searched from differential thermal analysis (DTA) endothermic peak (extrapolation). The solid state C^13-NMR spectrums of each crystal polymorph were measured by AVANCE/DRX500 manufactured by Bruker (measuring conditions; accumulated counts 512 times, contact time 3 msec, repeated time 5 sec, probe 4 mm MAS, observed frequency 125.77 Mhz, spinning rate 10000 Hz).
After ethyl (−)-2-[4-[2-[[(1S,2R)-2-hydroxy-2-(4-hydroxyphenyl)-1-methylethyl]amino]ethyl]-2,5-dimethylphenoxy]-acetate hydrochloride obtained in Example 1 was stored at 60° C. for a week, chemical stability was determined by measuring the residual percentage of ethyl (−)-2-[4-[2-[[(1S,2R)-2-hydroxy-2-(4-hydroxylphenyl)-1-methylethyl]amino]ethyl]-2,5-dimethylphenoxy]acetate hydrochloride by HPLC and polymorphic stability was examined by the powder X-ray diffraction measurement.

[3] = after 1 week storage at 60° C., hydrochloride
[4] = after 1 week storage at 60° C., listed as crystal form C, hydrochloride

change of the crystalline form [1]: still crystalline form C
residual percentage (chemical purity %) [2, 3]: constant
residual percentage (chemical purity %) [2, 4]: 99.6%
appearance [2, 3]: no change in appearance
appearance [2, 4]: white
crystal form [2, 3]: polymorphic transformation did not occur
crystal form [2, 4]: crystal form C
appearance ([2]; at start): white
residual percentage (chemical purity %) ([2]; at start): 99.6%
crystal form ([2]; at start): crystal form C
SMILES: CCOC(=O)COc1cc(C)c(CCN[C@@H](C)[C@H](O)c2ccc(O)cc2)cc1C.Cl [crystalline form C, ethyl (−)-2-[4-[2-[[(1S,2R)-2-hydroxy-2-(4-hydroxyphenyl)-1-methylethyl]amino]ethyl]-2,5-dimethylphenoxy]-acetate hydrochloride]
